pIC50: −log10 of the molar value.

For series [1], the target named is T1, LBD of progesterone receptor-beta (PRβ) fused to DBD of GAL4 (Homo sapiens, UniProt P06401).
T1 sequence (P06401 679-913 limits assumed): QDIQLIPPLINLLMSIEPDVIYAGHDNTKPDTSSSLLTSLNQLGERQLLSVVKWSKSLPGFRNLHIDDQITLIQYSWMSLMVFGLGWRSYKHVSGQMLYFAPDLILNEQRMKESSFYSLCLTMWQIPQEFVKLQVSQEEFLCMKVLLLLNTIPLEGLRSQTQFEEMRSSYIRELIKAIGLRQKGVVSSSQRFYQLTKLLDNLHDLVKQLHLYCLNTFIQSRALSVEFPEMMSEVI
The experiment in a line: LBD-expressing reporter assay (GeneBLAzer), PR LBD. The class given is cell-based. The conditions noted are these: inhibition of maximal activity attained with agonist; read-out: Steroid Receptor LBD IC50 (μM) PR. The source says: (§1) This assay uses cells that stably express a chimera fusion protein comprising the LBD of a steroid hormone receptor fused to the DNA-binding domain (DBD) of GAL4 along with beta-lactamase reporter under transcriptional control of an upstream activator sequence (UAS). When agonist binds to the LBD of the GAL4 (DBD)-steroid hormone (LBD) chimera fusion protein, the protein binds to the UAS, resulting in expression of beta-lactamase. LBDs of androgen receptor (AR), progesterone receptor-beta (PRβ), glucocorticoid receptor (GR), estrogen receptor-α (ERα), and estrogen receptor-β (ERβ) were tested and IC50s calculated for inhibiting maximal activity attained with agonist.
For orientation: A reporter such as luciferase makes a cellular process visible.

Series [2] concerns PC3 cells. As to the kind of experiment: Cell proliferation/viability assay, PC3 (Alamar blue). Format: cell-based. The conditions noted are these: Homo sapiens; PC-3, Alamar blue; read-out: Cellular Proliferation/Viability IC50 (μM) PC-3. Here is the method: (§2) Cell proliferation/viability was measured in LNCaP and PC3 cells with Alamar blue, and proliferation was measured in LN-CaP95 cells with BrdU incorporation. In LNCaP cells, AR specific proliferation is calculated by measuring the difference between control cells treated with or without 0.1 nM R1881.
In general terms: Alamar Blue is a resazurin reagent that responds to reducing activity.

Series [3] deals with T2, LBD of glucocorticoid receptor (GR) fused to DBD of GAL4 (Homo sapiens, UniProt P04150).
T2 sequence (P04150 524-758 limits assumed): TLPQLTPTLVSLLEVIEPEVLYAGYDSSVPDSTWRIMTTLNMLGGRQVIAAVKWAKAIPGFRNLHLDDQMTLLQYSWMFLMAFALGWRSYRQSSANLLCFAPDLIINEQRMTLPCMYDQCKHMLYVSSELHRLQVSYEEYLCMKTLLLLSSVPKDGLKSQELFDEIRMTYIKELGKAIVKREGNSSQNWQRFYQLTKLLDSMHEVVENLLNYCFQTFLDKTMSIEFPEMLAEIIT
As to the kind of experiment: LBD-expressing reporter assay (GeneBLAzer), GR LBD. The conditions noted are these: inhibition of maximal activity attained with agonist; read-out: Steroid Receptor LBD IC50 (μM) GR. The class given is cell-based.
Text: as §1

Series [4] concerns the target LBD of estrogen receptor-β (ERβ) fused to DBD of GAL4 (Homo sapiens, UniProt Q92731). As to the kind of experiment: LBD-expressing reporter assay (GeneBLAzer), ERβ LBD. Format: cell-based. The conditions noted are these: inhibition of maximal activity attained with agonist; read-out: Steroid Receptor LBD IC50 (μM) ERβ.
Text: as §1, with “To assess if the representative compounds (Compounds A13, A28, A38, A74, A93, and A109) compete with ligand (agonist) for the ligand-binding domain (LBD) of steroid hormone receptors (which would be off-target), the GeneBLAzer assay was employed (Thermo Fisher). This” for “This”

Series [5] relates to LN-CaP95 cells. As to the kind of experiment: Cell proliferation assay, LNCaP95 (BrdU incorporation). The conditions noted are these: LNCaP-95, read-out: Cellular Proliferation/Viability IC50 (μM) LNCaP95. Format: cell-based. The method, then:
as §2
Background: Uptake of a labelled nucleoside into DNA is a usual measure of proliferation.

Series [6] has as its system LNCaP cells. As to the kind of experiment: Cell proliferation/viability assay, LNCaP (Alamar blue). The class given is cell-based. The conditions noted are these: Homo sapiens, AR specific proliferation with 0.1 nM R1881, read-out: Cellular Proliferation/Viability IC50 (μM) LNCaP. The method, then: as §2
The target of series [7] is T3, LBD of estrogen receptor-α (ERα) fused to DBD of GAL4 (Homo sapiens, UniProt P03372).
T3 sequence (P03372 311-547 limits assumed): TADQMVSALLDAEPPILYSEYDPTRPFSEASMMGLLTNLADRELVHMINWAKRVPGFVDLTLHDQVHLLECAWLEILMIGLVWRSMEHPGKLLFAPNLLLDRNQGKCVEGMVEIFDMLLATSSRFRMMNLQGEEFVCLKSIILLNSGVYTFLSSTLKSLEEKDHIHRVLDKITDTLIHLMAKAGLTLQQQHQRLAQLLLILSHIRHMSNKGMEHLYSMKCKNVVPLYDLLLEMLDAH
The experiment in a line: LBD-expressing reporter assay (GeneBLAzer), ERα LBD. The class given is cell-based. The conditions noted are these: inhibition of maximal activity attained with agonist; read-out: Steroid Receptor LBD IC50 (μM) ERα.
Text: as §1

Series [8] is described as follows: In vivo pharmacokinetics in plasma after oral gavage (PO) in male CD-1 mice. The conditions noted are these: plasma, single PO dose 5 mg/kg, male CD-1 mice; for bioavailability / AUC(0-t) / Cmax / Tmax / half-life: mouse; for bioavailability: oral availability; for half-life: read-out: t½ (converted). The method, then:
The purpose of this study is to determine the pharmacokinetics of the tested compounds in plasma, following oral gavage administration (PO) to male CD-1 mice.
Animal Husbandry: Animals were group housed during acclimation and the study. The animal room environment were controlled (target conditions: temperature 18 to 26° C., relative humidity 30 to 70%, 12 hours artificial light and 12 hours dark). Temperature and relative humidity were monitored daily. Animals were fasted at least 12 hours prior to the administration. All animals had access to Certified Rodent Diet ad libitum 4 hours post dosing.
Dose Formulation: prepared 85-100 uL of a stock solution of representative compounds of the disclosure in DMSO at 50 mM; 1.5% v/v of Tween 80 were added and mixed gently; 95.5% v/v saline was added gently to the organic phase. The solution was mixed slowly by reverse pipetting to get a clear solution.
Dose Administration: the dose formulations were administered via oral gavage per facility SOPs. The dose volume were determined by the animals' body weight collected on the morning of dosing day
Sample Collection: blood collection (about 0.05 mL per time point) was performed from saphenous vein of each animal into polypropylene tubes at each timepoints (0, 0.25, 0.5, 1, 2, 4, 8, 12, and 24 hr). All blood samples were transferred into pre-chilled tubes containing 2 μL of K2-EDTA (0.5M) and placed on wet ice until centrifugation. Each collected blood sample was in the wet-ice before centrifugation. Each collected blood was under centrifugation for 15 minutes at 4° C. and 3000 g for plasma collection. Plasma samples were stored in polypropylene tubes, quickly frozen over dry ice and kept at −70±10° C. until LC/MS/MS analysis.
Bioanalytical analysis: A LC-MS/MS method for the quantitative determination of tested compound in biological matrix were developed under non-GLP compliance. A calibration curve with at least 7 non-zero calibration standards were applied for the method including LLOQ.
Plasma concentration versus time data were analyzed by non-compartmental approaches using the Phoenix WinNonlin 6.3 software program. Cl, Vdss, C0, Cmax, Tmax, T^1/2, AUC(0-t), AUC(0-inf), MRT(0-t), MRT(0-inf), % F (oral availability) and graphs of plasma concentration versus time profile were reported.

Series [9] is described as follows: Microsomal stability assay, mouse liver microsomes. Format: in vitro ADME. The conditions noted are these: mouse, liver microsomes, pH 7.4, mouse liver microsomes, 1 μM compound, 0.5 mg/mL protein, 37° C.; read-out: MLM +30/− NADPH: Clint (μL/min/mg protein). The method, boiled down: (§3)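 Compound at 1 μM was incubated at 37° C with 0.5 mg/mL liver microsomes and 1 mM NADPH and/or 1 mM UDPGA (with alamethicin) in 100 mM potassium phosphate pH 7.4, 3 mM MgCl2. Samples were taken at 0, 15, 30 and 60 min and measured by LC/MS/MS. t½ came from compound loss relative to 0 min, and Clint was scaled with 45 mg microsomal protein/g liver.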

Series [10] in a line: Microsomal stability assay, human liver microsomes. The class given is in vitro ADME. The conditions noted are these: pH 7.4, 1 μM compound, 0.5 mg/mL protein, 37° C., read-out: HLM +/− NADPH: Clint (μL/min/mg protein). The method, boiled down:
as §3

Series [11] deals with T4, androgen receptor (AR) (Homo sapiens, UniProt P10275, T878A).
T4 construct: LNCaP cells were transiently transfected with the PSA (6.1 kb)-luciferase reporter for 24 h; endogenous in cells; host or cells: LNCaP
T4 sequence (P10275 1-920 T878A): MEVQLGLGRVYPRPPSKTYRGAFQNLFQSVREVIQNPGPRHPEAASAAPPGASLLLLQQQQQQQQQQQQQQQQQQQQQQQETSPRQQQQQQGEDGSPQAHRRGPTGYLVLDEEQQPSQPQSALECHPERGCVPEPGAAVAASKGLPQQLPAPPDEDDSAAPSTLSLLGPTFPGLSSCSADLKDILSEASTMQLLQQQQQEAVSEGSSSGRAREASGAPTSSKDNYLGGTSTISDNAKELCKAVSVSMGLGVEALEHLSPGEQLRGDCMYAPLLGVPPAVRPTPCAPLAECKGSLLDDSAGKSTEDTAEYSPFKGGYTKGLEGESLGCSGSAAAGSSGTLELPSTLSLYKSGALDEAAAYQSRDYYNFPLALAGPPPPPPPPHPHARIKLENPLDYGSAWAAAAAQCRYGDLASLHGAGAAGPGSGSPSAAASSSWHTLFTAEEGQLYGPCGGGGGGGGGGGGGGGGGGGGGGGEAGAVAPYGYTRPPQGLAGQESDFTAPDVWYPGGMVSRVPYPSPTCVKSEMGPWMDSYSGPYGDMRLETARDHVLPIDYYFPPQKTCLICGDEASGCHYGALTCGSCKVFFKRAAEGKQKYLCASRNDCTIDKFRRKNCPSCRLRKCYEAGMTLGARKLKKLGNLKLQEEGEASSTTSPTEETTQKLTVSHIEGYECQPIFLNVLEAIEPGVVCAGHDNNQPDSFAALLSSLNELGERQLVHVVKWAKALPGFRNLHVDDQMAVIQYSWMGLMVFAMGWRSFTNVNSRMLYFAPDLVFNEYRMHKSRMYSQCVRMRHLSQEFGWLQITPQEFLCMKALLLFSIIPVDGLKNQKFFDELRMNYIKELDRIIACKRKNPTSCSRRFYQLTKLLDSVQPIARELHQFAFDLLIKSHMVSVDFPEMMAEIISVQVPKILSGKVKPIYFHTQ
As to the kind of experiment: Androgen-induced PSA (6.1 kb)-luciferase reporter assay in LNCaP cells. Format: cell-based. The conditions noted are these: LNCaP cells transfected with PSA (6.1 kb)-luciferase reporter, R1881 1 nM, 24 h; read-out: PSA-Luc IC50 Range. In short, it runs like this:
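Read-out is firefly luminescence (10 s) in LNCaP lysates, normalized to protein, from an ARE-containing PSA (6.1 kb)-luciferase reporter driven by androgen.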

Sequence of LBD of estrogen receptor-β (ERβ) fused to DBD of GAL4 (Q92731 264-498 limits assumed): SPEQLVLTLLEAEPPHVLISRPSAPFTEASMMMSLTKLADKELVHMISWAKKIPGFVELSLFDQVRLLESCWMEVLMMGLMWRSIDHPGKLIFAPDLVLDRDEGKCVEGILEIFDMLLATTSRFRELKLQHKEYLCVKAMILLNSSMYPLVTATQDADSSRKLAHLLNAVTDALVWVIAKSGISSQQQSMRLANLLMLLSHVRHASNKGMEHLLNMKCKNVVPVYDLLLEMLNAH

On to `CC(C)(c1ccc(OC[C@H](O)CO)cc1)c1ccc(OC[C@H](O)CCl)cc1` [EPI-002, reference compound], for which the IC50 in series [1] is above 10 µM; in series [2], above 10 µM; in series [3] it was above 10 µM; in [4], above 10 µM; in series [5], around 20 µM; in [6], 9 µM. In addition, the IC50 in [7] was above 10 µM.
Consider `CC(Oc1ccc(C(C)(C)c2cc(Cl)c(OCCCl)c(Cl)c2)cc1)c1ocnc1S(C)(=O)=O` (stereo not shown) [Compound A35, 5-(1-(4-(2-(3,5-Dichloro-4-(2-chloroethoxy)phenyl)propan-2-yl)phenoxy)ethyl)-4-(methylsulfonyl)oxazole], for which, in series [8], the bioavailability turned out to be 49.6%, the AUC(0-t) stood at 2420 ng·h/mL, the Cmax amounted to 819 ng/mL and the time to peak (Tmax) is 0.5 h. In series [8], the half-life is 4 h and the “AUC/D” value was determined as 483.0 kg·ng·h/mL/mg. For the same compound, the microsomal CLint at 1 μM in series [9] fell in the range of 12 to 48 µL/min/mg. For the same compound, in series [10], the microsomal CLint at 1 μM is below 12 µL/min/mg. The pIC50 in series [11] is 5.70 to 6.30.
Take `CC(C)(c1ccc(OCc2ncc(S(C)(=O)=O)o2)cc1)c1cc(Cl)c(OCCCl)c(Cl)c1` [Compound A66]: in series [8], the bioavailability is 71.4%, the AUC(0-t) amounted to 11900 ng·h/mL, the peak level (Cmax) was 1610 ng/mL and the Tmax was found to be 0.8 h. In series [8], the half-life was 12 h and the “AUC/D” value is 2385.4 kg·ng·h/mL/mg. In series [9], the microsomal CLint at 1 μM was below 12 µL/min/mg. For the same compound, the microsomal CLint at 1 μM in series [10] was below 12 µL/min/mg. Besides, the negative logarithm of the IC50 (pIC50) in [11] is 5.70 to 6.30.
For the compound `Cc1cc(C(C)(C)c2ccc(OCc3ocnc3S(C)(=O)=O)cc2)cc(C#N)c1OCCCl` [Compound A29, 2-(2-chloroethoxy)-3-methyl-5-(2-(4-((4-(methylsulfonyl)oxazol-5-yl)methoxy)phenyl)propan-2-yl)benzonitrile], in series [8], the bioavailability was 60.6%, the AUC(0-t) was 5190 ng·h/mL, the Cmax stood at 2010 ng/mL and the Tmax was 0.5 h. Moreover, in series [8], the half-life is 2.5 h and the “AUC/D” value worked out at 1037.3 kg·ng·h/mL/mg. Also, the microsomal CLint at 1 μM in [9] is 12 to 48 µL/min/mg. Also, the microsomal CLint at 1 μM in series [10] fell in the range of 12 to 48 µL/min/mg. The pIC50 in series [11] was above 6.30.

For orientation: bioavailability means dose-corrected exposure relative to a reference, in per cent. A high value points to good availability. The AUC(0-t) is the area under the concentration-time curve up to a stated or last time point. As a reminder, the Cmax is the highest concentration seen after dosing. By Tmax is commonly meant the time from dosing to the highest level. In general, pIC50 refers to the negative decadic logarithm of the IC50, by convention in mol/L.

Source of the values: US11059795B2, “Androgen receptor modulators and methods for their use” (ESSA Pharma, Inc., priority 2018, dated 2021).
